ChEMBL document CHEMBL6134863, “Novel Mitochondria-Targeted Asymmetric Heptamethine Cyanine Dye for Cancer Targeted NIR Imaging and Potent Necrosis and Senescence Induction with Prolonged Retention” (J Med Chem, 2025)
Active and inactive are the calls of the source. The rule behind the calls is not given here.

Assays:
[1] = Drug accumulation in BALB/c mouse tumor xenografted with human NCI-H520 cells assessed as increase in fluorescence intensity at 0.5 mg/kg, iv measured at 96 hrs by imaging based analysis; assay type: ADME, organism-based, Neoplasm; conditions: in vivo
[2] = Cytotoxicity against human Primary lung fibroblast assessed as decrease in cell viability up to 10 uM incubated for 24 hrs by CCK-8 assay; assay type: toxicity, cell-based
[3] = Antioxidant activity of compound in presence of Glutathione; assay type: functional
[4] = Drug accumulation in tumor to muscle of BALB/c mouse implanted with mouse 4T1 cells at 0.5 mg/kg, iv measured at 4 to 168 hrs; assay type: ADME, organism-based; conditions: in vivo, time 4-168 hrs
[5] = Antioxidant activity of compound in presence of Ca2+; assay type: functional
[6] = Toxicity in BALB/c mouse implanted with mouse 4T1 cells assessed as kidney damage at 5 mg/kg, iv measured for 11 days by H and E staining based analysis; assay type: organism-based; conditions: in vivo, 264 h, time 11 day
[7] = test system: Squamous carcinoma cell line; assay: Antitumor activity against patient-derived Squamous carcinoma cell line xenografted in BALB/c mouse assessed as tumor growth inhibition at 0.5 mg/kg, iv measured for 5 days; assay type: functional, organism-based; conditions: Homo sapiens, time 5.0 day
[8] = Toxicity in BALB/c mouse implanted with mouse 4T1 cells assessed as liver damage at 5 mg/kg, iv measured for 11 days by H and E staining based analysis; assay type: organism-based; conditions: in vivo, 264 h, time 11 day
[9] = Drug uptake in human NCI-H226 cells assessed as increase in fluorescence intensity incubated for 24 hrs by fluorescence based microscopic analysis; assay type: ADME, cell-based; conditions: nci-h226, 24 h
[10] = Partition coefficient, logP of compound; assay type: physicochemical; conditions: octanol/water
[11] = Stability of compound in DMSO-H2O incubated for 150 mins by absorbance based analysis; assay type: physicochemical; conditions: 2.5 h
NIH3T3 = assay: Cytotoxicity against mouse 3T3 cells assessed as decrease in cell viability up to 5 uM incubated for 24 hrs by CCK-8 assay; assay type: toxicity, cell-based; conditions: nih3t3, 24 h
[12] = Photostability of compound in DMSO-H2O incubated for 1 hr irradiated with deuterium lamp by absorbance based analysis; assay type: physicochemical; conditions: read-out: Stability
[13] = Antioxidant activity of compound in presence of HCO3-; assay type: functional
[14] = Stability of compound at 30 degreeC by thermogravimetric analysis; assay type: physicochemical
[15] = Toxicity in BALB/c mouse implanted with mouse 4T1 cells assessed as survival rate at 5 mg/kg, iv measured for 11 days; assay type: organism-based; conditions: in vivo, time 11 day
4T1 = assay: Antitumor activity against mouse 4T1 cells implanted in BALB/c mouse assessed as tumor growth inhibition 5 mg/kg, iv measured for 11 days; assay type: functional; conditions: 4T1, 264 h, time 11 day, read-out: TGI
[16] = Toxicity in BALB/c mouse implanted with patient-derived Squamous carcinoma cell line assessed as change in body weight at 0.5 mg/kg, iv measured for 5 days; assay type: organism-based; conditions: in vivo, 120 h, time 5 day
NCI-H226 [17] = assay: Induction of apoptosis in human NCI-H226 cells assessed as late apoptotic cells at 5 uM incubated for 48 hrs by Annexin V-FITC/PI staining based flow cytometry (reference value: 3.61 %); assay type: functional
[18] = Antioxidant activity of compound in presence of CO3; assay type: functional
[19] = Drug uptake in mouse 4T1 cells assessed as increase in red fluorescence intensity at 5 uM incubated for 30 mins by CY7 staining based microscopic analysis; assay type: ADME, cell-based; conditions: 4t1, 0.5 h
Mitochondrial membrane [20] = assay: Induction of mitochondrial membrane potential loss in human NCI-H226 cells at 2 uM incubated for 4 hrs by TMRE staining based fluorescence microscopic analysis; assay type: cell membranes
[21] = Drug localization in mitochondria of human NCI-H226 cell by MitoTracker Red based NIR confocal microscopic analysis; assay type: ADME
[22] = Drug uptake in human NCI-H226 cells assessed as increase in red fluorescence intensity at 5 uM incubated for 30 mins by CY7 staining based microscopic analysis; assay type: ADME, cell-based; conditions: nci-h226, 0.5 h
NCI-H226 [23] = assay: Induction of apoptosis in human NCI-H226 cells assessed as early apoptotic cells at 5 uM incubated for 48 hrs by Annexin V-FITC/PI staining based flow cytometry (reference value: 2.93 %); assay type: functional
NCI-H226 [24] = assay: Induction of apoptosis in human NCI-H226 cells assessed as necrotic cells at 5 uM incubated for 48 hrs by Annexin V-FITC/PI staining based flow cytometry (reference value: 0.048 %); assay type: functional
[25] = Antioxidant activity of compound in presence of L-Cysteine; assay type: functional
NCI-H250 = assay: Antitumor activity against human […] cells xenografted in BALB/c mouse assessed as tumor growth inhibition 0.5 mg/kg, iv measured for 5 days; assay type: functional, organism-based; conditions: time 5.0 day
[26] = Drug accumulation in BALB/c mouse tumor implanted with mouse 4T1 cells assessed as increase in fluorescence intensity at 0.5 mg/kg, iv measured at 48 hrs by imaging based analysis; assay type: ADME, organism-based, Neoplasm; conditions: in vivo
[27] = Antioxidant activity of compound in presence of H2O2-; assay type: functional
NCI-H226 [28] = assay: Induction of ROS production in human NCI-H226 cells at 5 uM incubated for 24 hrs by flow cytometry analysis; assay type: functional, cell-based
[29] = Antioxidant activity of compound in presence of ClO-; assay type: functional
[30] = Antioxidant activity of compound in presence of ONOO-; assay type: functional
[31] = Drug accumulation in BALB/c mouse plasma implanted with mouse 4T1 cells assessed as increase in fluorescence intensity at 0.5 mg/kg, iv measured at 96 to 120 hrs by imaging based analysis; assay type: ADME, organism-based; conditions: in vivo, time 96-120 hrs
[32] = Stability of compound in DMSO-H2O incubated for 1 hr by absorbance based analysis; assay type: physicochemical
[33] = Antioxidant activity of compound in presence of HSO3-; assay type: functional
[34] = Antioxidant activity of compound in presence of HCHO; assay type: functional
Mitochondrial membrane [35] = assay: Induction of mitochondrial membrane potential loss in human NCI-H226 cells; assay type: cell membranes
[36] = Antioxidant activity of compound in presence of NO2; assay type: functional
[37] = Drug accumulation in BALB/c mouse tumor implanted with mouse 4T1 cells assessed as increase in fluorescence intensity at 0.5 mg/kg, iv measured at 96 hrs by DAPI staining based fluorescence microscopic analysis; assay type: ADME, organism-based, Neoplasm; conditions: in vivo
[38] = Antioxidant activity of compound in presence of Br-; assay type: functional
[39] = Drug uptake in human NCI-H226 cells assessed as increase in green fluorescence intensity at 5 uM incubated for 30 mins by F-actin staining staining based microscopic analysis; assay type: ADME, cell-based; conditions: nci-h226, 0.5 h
[40] = Acute toxicity in BALB/c mouse implanted with mouse 4T1 cells assessed as change in body weight at 5 mg/kg, iv measured for 11 days; assay type: organism-based; conditions: in vivo, 264 h, time 11 day
[41] = Antioxidant activity of compound in presence of […]; assay type: functional
[42] = Cytotoxicity against human Primary lung fibroblast assessed as decrease in cell viability up to 5 uM incubated for 24 hrs by CCK-8 assay; assay type: toxicity, cell-based
[43] = Drug accumulation in BALB/c mouse plasma xenografted with human NCI-H520 cells assessed as increase in fluorescence intensity at 0.5 mg/kg, iv measured at 96 to 120 hrs by imaging based analysis; assay type: ADME, organism-based; conditions: in vivo, time 96-120 hrs

Q: For `CCCN1/C(=C/C=C2\CCCC(/C=C/C3=[N+](Cc4ccc(C(=O)O)cc4)c4ccccc4C3(C)C)=C2Cl)C(C)(C)c2ccccc21.[Br-]`, which Drug uptake [1] is on record?
A: Active

Q: What about the Activity [2] of the same molecule?
A: Non-toxic

Q: And the Activity [3]?
A: Active

Q: And the Drug uptake [4]?
A: Active

Q: And the Activity [5]?
A: Active

Q: And the Activity [6]?
A: Non-toxic

Q: What about the TGI [7] of the same molecule?
A: Active

Q: And the Activity [8]?
A: Non-toxic

Q: What about the Drug uptake [9] of the same molecule?
A: Active

Q: And the logP [10]?
A: 6.09

Q: And the Stability [11]?
A: Stable

Q: What about the Activity (NIH3T3) of the same molecule?
A: > 80%

Q: And the remaining at 1 h [12]?
A: 95.8%

Q: And the Activity [13]?
A: Active

Q: What about the Stability [14] of the same molecule?
A: Stable

Q: And the survival at 264 h [15]?
A: 100%

Q: And the inhibition in vivo at 5 mg/kg (4T1)?
A: ~60%

Q: What about the Activity [16] of the same molecule?
A: Non-toxic

Q: And the Activity (NCI-H226 [17])?
A: 14%

Q: And the Activity [18]?
A: Active

Q: And the Drug uptake [19]?
A: Active

Q: What about the Activity (Mitochondrial membrane [20]) of the same molecule?
A: Active

Q: What about the Drug uptake [21] of the same molecule?
A: Active

Q: What about the Drug uptake [22] of the same molecule?
A: Active

Q: And the Activity (NCI-H226 [23])?
A: 0.82%

Q: What about the Activity (NCI-H226 [24]) of the same molecule?
A: 58.9%

Q: What about the Activity [25] of the same molecule?
A: Active

Q: And the TGI (NCI-H250)?
A: Active

Q: What about the Drug uptake [26] of the same molecule?
A: Active

Q: And the Activity [27]?
A: Active

Q: What about the Activity (NCI-H226 [28]) of the same molecule?
A: Active

Q: What about the Activity [29] of the same molecule?
A: Active

Q: And the Activity [30]?
A: Active

Q: What about the Drug uptake [31] of the same molecule?
A: Active

Q: And the Stability [32]?
A: Stable

Q: What about the Activity [33] of the same molecule?
A: Active

Q: And the Activity [34]?
A: Active

Q: What about the Activity (Mitochondrial membrane [35]) of the same molecule?
A: Active

Q: And the Activity [36]?
A: Active

Q: And the Drug uptake [37]?
A: Active

Q: And the Activity [38]?
A: Active

Q: And the Drug uptake [39]?
A: Active

Q: What about the Activity [40] of the same molecule?
A: Non-toxic

Q: What about the Activity [41] of the same molecule?
A: Active

Q: What about the Activity [42] of the same molecule?
A: Non-toxic

Q: And the Drug uptake [43]?
A: Active
